Data reported in patent US20250304537A1 (Repare Therapeutics Inc., priority 2022, published 2025).

Biological target: recombinant human Myt1 (full length PKMYT1) (Homo sapiens (Human), UniProt Q99640)
Test: Recombinant human Myt1 kinase assay (ADP-Glo)
Type: biochemical
Settings: 10 μM ATP
Procedure: Detection of Myt1 kinase activity utilized a recombinant human Myt1 kinase assay measuring the hydrolysis of ATP using a commercially available ADP-Glo Assay (ADP-Glo™ Kinase Assay from Promega, 10 000 assays, #V9102). Briefly, 5 μL recombinant human Myt1 (full length PKMYT1 recombinant human protein expressed in insect cells from Thermo Fisher #A33387; ˜80% purity) was prepared in reaction buffer (70 mM HEPES, 3 mM MgCl2, 3 mM MnCl2, 50 μg/ml PEG 20000, 3 μM Na-orthovanadate, 1.2 mM DTT) and added to 384 well white polystyrene, flat bottom well, non-treated, microplate (Corning #3572). After this, 5 μL of compounds (diluted in reaction buffer to 0.5% DMSO) was added to the microplate and the plate was spun briefly and incubated at 22° C. for 15 minutes. Ultra-Pure Adenosine Triphosphate (ATP) solution (ADP-Glo kit from Promega) was diluted in reaction buffer and 5 μL was added to the microplate, spun down briefly and incubated for 60 minutes at 30° C. The final Myt1 enzyme concentration was 18 nM and the final ATP concentration was 10 μM. After the 60-minute incubation, 15 μL of ADP-Glo reagent was added and the plate was spun briefly and sealed and incubated in the dark for 40 minutes at 22° C. Following this, 30 μL of kinase detection reagent was added per well and the plate was spun briefly, sealed and incubated for 45-60 minutes at 22° C. in the dark. Luminescence was read using the Envision (250 ms integration). The IC50 and the % max inhibition were calculated for each inhibitor compound tested.

recombinant human Myt1 (full length PKMYT1), sequence (Q99640 whole entry): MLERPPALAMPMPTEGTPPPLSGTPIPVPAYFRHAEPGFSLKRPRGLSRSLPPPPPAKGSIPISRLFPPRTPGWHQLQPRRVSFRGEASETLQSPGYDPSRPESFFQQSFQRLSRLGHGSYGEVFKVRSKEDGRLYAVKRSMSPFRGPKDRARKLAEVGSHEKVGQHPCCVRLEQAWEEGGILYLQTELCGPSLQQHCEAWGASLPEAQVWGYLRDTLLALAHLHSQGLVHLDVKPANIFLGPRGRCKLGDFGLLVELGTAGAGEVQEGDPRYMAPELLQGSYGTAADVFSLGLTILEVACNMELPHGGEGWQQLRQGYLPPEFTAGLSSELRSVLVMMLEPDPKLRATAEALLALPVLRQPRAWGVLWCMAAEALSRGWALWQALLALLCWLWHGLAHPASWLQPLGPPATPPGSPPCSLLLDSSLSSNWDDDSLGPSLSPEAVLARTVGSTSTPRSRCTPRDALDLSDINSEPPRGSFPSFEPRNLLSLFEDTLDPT

COc1cccc(-c2cccc(-c3cc(-c4c(C)ccc5[nH]ncc45)c(N)c(C(N)=O)n3)n2)c1 [Compound 340, 5-amino-6′-(3-methoxyphenyl)-4-(5-methyl-1H-indazol-4-yl)-[2,2′-bipyridine]-6-carboxamide]
IC50: > 2 µM

CCC(COc1cccc(-c2cc(-c3c(C)ccc4[nH]ncc34)cc(C(N)=O)n2)n1)OC (centres unmarked) [Compound 498]
IC50: 0.093 µM

CNc1ccc(-c2nc(C(N)=O)c(N)c(-c3c(C)ccc4[nH]ncc34)n2)cc1 [Compound 152]
IC50: 0.044 µM

Cc1ccc2[nH]ncc2c1-c1cc(-c2cccc(N3CCOCC3)n2)nc(C(N)=O)c1N [Compound 217]
IC50: 0.013 µM

Cc1ccc(-c2nc(C(N)=O)c(N)c(-c3cc(O)ccc3C)n2)cc1 [Compound 20]
IC50: 0.105 µM

Cc1ccc2[nH]ncc2c1-c1cc(-c2cccc(OC[C@H]3CCCN3)n2)nc(C(N)=O)c1N [Compound 374]
IC50: 0.014 µM

NC(=O)c1nc(-c2cccnc2)cc(-c2c(C(F)(F)F)ccc3[nH]ncc23)c1N [Compound 325]
IC50: > 2 µM

Cc1ccc2[nH]ncc2c1-c1cc(-c2cccc(OC[C@H]3CCCO3)n2)nc(C(N)=O)c1N [Compound 356]
IC50: 0.009 µM

Cc1ccc2[nH]ncc2c1-c1cc(-c2ccnc(OC3CCOCC3)n2)nc(C(N)=O)c1N (atropisomer, axis not shown) [Compound 231]
IC50: 0.231 µM

Cc1ccc2[nH]ncc2c1-c1nc(-c2cccc(CC#N)c2)nc(C(N)=O)c1N [Compound 281]
IC50: 0.008 µM

Cc1ccc2[nH]ncc2c1-c1cc(Nc2ccccc2)nc(C(N)=O)c1N [Compound 335, 3-amino-4-(5-methyl-1H-indazol-4-yl)-6-(phenylamino)picolinamide]
IC50: 0.195 µM

CCC(Nc1cccc(-c2cc(-c3c(C)ccc4[nH]ncc34)c(N)c(C(N)=O)n2)n1)c1ccccc1 (centres unmarked) [Compound 331, 5-amino-4-(5-methyl-1H-indazol-4-yl)-6′-((1-phenylpropyl)amino)-[2,2′-bipyridine]-6-carboxamide]
IC50: 0.054 µM

Cc1ccc2[nH]ncc2c1-c1nc(-c2cccc(CNc3ncc(C(F)(F)F)cn3)c2)nc(C(N)=O)c1N [Compound 296]
IC50: 0.213 µM

Cc1ccc2[nH]ncc2c1-c1cc(-c2cccc(OCCN3CCN(C)CC3)n2)nc(C(N)=O)c1N [Compound 307]
IC50: 0.025 µM

Cc1ccc2[nH]ncc2c1-c1cc(-c2ccnc(N3CCCC3CO)n2)nc(C(N)=O)c1N (centres unmarked) [Compound 373]
IC50: 0.02 µM

Cc1ccc2[nH]ncc2c1-c1cc(-c2cccc(OCc3cncs3)n2)nc(C(N)=O)c1N [Compound 279]
IC50: 0.008 µM

Cc1ccc2[nH]ncc2c1-c1cc(-c2cccc(O[C@@H](C)c3ncccn3)n2)nc(C(N)=O)c1N [Compound 253]
IC50: 0.055 µM

Cc1ccc2[nH]ncc2c1-c1cc(-c2ccnc(N3CCCC(CO)C3)n2)nc(C(N)=O)c1N (centres unmarked) [Compound 346]
IC50: 0.013 µM

Cc1ccc(O)cc1-c1nc(C(N)=O)c(N)c(-c2cc(O)ccc2C)n1 [Compound 12]
IC50: 0.246 µM

Cc1ccc2[nH]ncc2c1-c1nc(-c2cccc3cc[nH]c23)nc(C(N)=O)c1N [Compound 366]
IC50: 0.028 µM

Cc1ccc2[nH]ncc2c1-c1cc(-c2ccnc(OCCOCCN(C)C)n2)nc(C(N)=O)c1N [Compound 192]
IC50: 0.025 µM

Cc1ccc2[nH]ncc2c1-c1cc(-c2ccnc(OCCc3nccn3C)n2)nc(C(N)=O)c1N [Compound 264]
IC50: 0.009 µM

Cc1ccnc(-c2cc(-c3c(C)ccc4[nH]ncc34)c(N)c(C(N)=O)n2)c1 (atropisomer, axis not shown) [Compound 280]
IC50: 0.011 µM

Cc1cc(-c2nc(C(N)=O)c(N)c(-c3c(C)ccc4[nH]ncc34)n2)cc(C(F)(F)F)c1 [Compound 144]
IC50: 0.13 µM

Cc1ccc2[nH]ncc2c1-c1cc(-c2cc[nH]c(=O)c2)nc(C(N)=O)c1N [Compound 237]
IC50: 0.048 µM

Cc1ccc2[nH]ncc2c1-c1nc(-c2cccc(N(C)C)c2)nc(C(N)=O)c1N [Compound 139]
IC50: 0.057 µM

Cc1ccc2[nH]ncc2c1-c1nc(-c2ccnc(N3CCOCC3)c2)nc(C(N)=O)c1N [Compound 155]
IC50: 0.015 µM

Cc1ccc(O)cc1-c1cc2cccnc2c(C(N)=O)c1N [Compound 1, 7-amino-6-(5-hydroxy-2-methylphenyl)quinoline-8-carboxamide]
IC50: > 50 µM

Cc1ccc(O)cc1-c1nc(-c2ccn(C)c(=O)c2)nc(C(N)=O)c1N [Compound 36]
IC50: 0.092 µM

Cc1ccc2[nH]ncc2c1-c1cc(-c2ccnc(OCCc3ccncn3)n2)nc(C(N)=O)c1N [Compound 311]
IC50: > 2 µM

Cc1ccc2[nH]ncc2c1-c1cc(-c2ccnc(O[C@@H](C)c3ncccn3)n2)nc(C(N)=O)c1N (atropisomer, axis not shown) [Compound 357]
IC50: 0.005 µM

Cc1ccc2[nH]ncc2c1-c1cc(-c2ccnc(OCCc3cccnc3)n2)nc(C(N)=O)c1N [Compound 272]
IC50: 0.012 µM

CNc1cccc(-c2nc(C(N)=O)c(N)c(-c3c(C)ccc4[nH]ncc34)n2)c1 [Compound 140]
IC50: 0.048 µM

Cc1ccc2[nH]ncc2c1-c1cc(-c2ccnc(N[C@@H]3c4ccccc4C[C@@H]3O)n2)nc(C(N)=O)c1N (atropisomer, axis not shown) [Compound 384]
IC50: 0.004 µM

Cc1ccc2n[nH]cc2c1-c1cc(-c2cccc(=O)[nH]2)nc(C(N)=O)c1N [Compound 243]
IC50: 0.073 µM

Cc1ccc2[nH]ncc2c1-c1nc(-c2cccc(C(C)(C)C#N)c2)nc(C(N)=O)c1N [Compound 126]
IC50: 0.027 µM

Cc1n[nH]c2cccc(-c3nc(-c4ccccc4)nc(C(N)=O)c3N)c12 [Compound 116]
IC50: > 5 µM

Cc1ccc2[nH]ncc2c1-c1cc(-c2cccc(OC[C@H](N)C(C)C)n2)nc(C(N)=O)c1N (atropisomer, axis not shown) [Compound 345]
IC50: 1.02 µM

Cc1ccc(O)cc1-c1nc(-c2cnn(C)c2)nc(C(N)=O)c1N [Compound 34]
IC50: 0.081 µM

Cc1ccc2[nH]ncc2c1-c1nc(-c2ccccc2NC(=O)C(C)C)nc(C(N)=O)c1N [Compound 407]
IC50: 0.004 µM

Cc1ccc2[nH]ncc2c1-c1cc(-c2cccc(N[C@@H](CO)c3ccccc3)n2)nc(C(N)=O)c1N [Compound 275]
IC50: 0.141 µM

Cc1ccc(O)cc1-c1nc(-c2cc(F)cc(F)c2)nc(C(N)=O)c1N [Compound 22]
IC50: 0.018 µM

Cc1ccc2[nH]ncc2c1-c1cc(-c2cn(C)cn2)nc(C(N)=O)c1N [Compound 172]
IC50: 0.053 µM

Cc1ccc2[nH]ncc2c1-c1cc(-c2cccc(OC[C@H]3CCCO3)n2)nc(C(N)=O)c1N (atropisomer, axis not shown) [Compound 388]
IC50: 0.643 µM

Cc1ccc2[nH]ncc2c1-c1cc(-c2ccnc(N[C@@H](CO)Cc3ccccc3)n2)nc(C(N)=O)c1N (atropisomer, axis not shown) [Compound 383]
IC50: 0.002 µM

Cc1ccc(O)c(C)c1-c1cc(-c2ccnnc2)cc(C(N)=O)c1N [Compound 149]
IC50: 0.735 µM

Cc1ccc2[nH]ncc2c1-c1cc(-c2ccnc(N[C@H](CO)Cc3ccccc3)n2)nc(C(N)=O)c1N (atropisomer, axis not shown) [Compound 370]
IC50: 0.869 µM

Cc1ccc2[nH]ncc2c1-c1cc(C(N)=O)nc(-c2ccccc2)n1 [Compound 76, 6-(5-methyl-1H-indazol-4-yl)-2-phenylpyrimidine-4-carboxamide]
IC50: > 2 µM

Cc1ccc2n[nH]cc2c1-c1cc(-c2cccc(OC[C@@H](N)c3ccccc3)n2)nc(C(N)=O)c1N [Compound 277]
IC50: 0.162 µM

CC(=O)Nc1cccc(-c2nc(C(N)=O)c(N)c(-c3c(C)ccc4[nH]ncc34)n2)c1 [Compound 298]
IC50: 0.015 µM

Cc1ccc2[nH]ncc2c1-c1nc(-c2cccc3nnsc23)nc(C(N)=O)c1N [Compound 390]
IC50: 0.005 µM

Cc1ccc2[nH]ncc2c1-c1cc(-c2ccnc(NCC3(O)COC3)n2)nc(C(N)=O)c1N (atropisomer, axis not shown) [Compound 394]
IC50: 0.098 µM

Cc1ccc(O)cc1-c1nc(-c2cccnc2)nc(C(N)=O)c1N [Compound 21]
IC50: 0.202 µM

COCCCOc1ccc(-c2nc(C(N)=O)c(N)c(-c3c(C)ccc4[nH]ncc34)n2)cc1 [Compound 138]
IC50: 0.043 µM

CCC(COc1cccc(-c2cc(-c3c(C)ccc4[nH]ncc34)c(N)c(C(N)=O)n2)c1)OC (centres unmarked) [Compound 360]
IC50: 0.33 µM

Cc1ccc2[nH]ncc2c1-c1nc(-c2ccc(CN3CCOCC3)s2)nc(C(N)=O)c1N [Compound 156]
IC50: 0.017 µM

Cc1ccc2[nH]ncc2c1-c1cc(-c2cccnc2)nc(C(N)=O)c1N [Compound 97]
IC50: 0.054 µM

Cc1ccc2[nH]ncc2c1-c1nc(-c2ccnc(C(F)(F)F)c2)nc(C(N)=O)c1N [Compound 153]
IC50: 0.027 µM

Cc1ccc2[nH]ncc2c1-c1cc(-c2cccc(OCc3nccc(N4CCOCC4)n3)n2)nc(C(N)=O)c1N [Compound 259]
IC50: 0.584 µM

Cc1ccc2[nH]ncc2c1-c1cc(-c2ccccn2)nc(C(N)=O)c1N [Compound 96]
IC50: 0.387 µM

Cc1ccc2[nH]ncc2c1-c1nc(-c2cccc(CO)c2)nc(C(N)=O)c1N [Compound 305]
IC50: 0.081 µM

CCCCc1cc(-c2c(C)ccc3[nH]ncc23)c(N)c(C(N)=O)n1 [Compound 216, 3-amino-6-butyl-4-(5-methyl-1H-indazol-4-yl)picolinamide]
IC50: 1.51 µM
